As usually defined, the LD50 is the dose expected to kill half of the subjects tested.

The record followed here is patent US4122179A, “Acid addition salts of vincamine and apovincamine” (priority 1976, dated 1978).

Test system in the first series: not listed separately
In words: LD50 / acute toxicity, intraperitoneal route. The series is classed as in vivo. Conditions: i.p.
Consider Vincamine tannate [Example 24.a], for which the LD50 was determined as 700 mg/kg.
Turning to `CC[C@@]12C=C(C(=O)OC)n3c4c(c5ccccc53)CCN(CCC1)[C@H]42` [Example 2.b, Apovineamine 2,4-dihydroxy-benzoate], the LD50 stood at 650 mg/kg.
Still for that read-out and setting: then `CC[C@@]12C=C(C(=O)OC)n3c4c(c5ccccc53)CCN(CCC1)[C@H]42` [Example 26.b, Apovincamine indolyl-3-acetate], with 750 mg/kg; and “Apovincamine-pectin (1:1 adduct) [Example 30.b]”, with 750 mg/kg.
Same read-out and setting: the same measure for `CC[C@]12CCCN3CCc4c(n(c5ccccc45)[C@@](O)(C(=O)OC)C1)[C@@H]32` [Example 21.a]: 900 mg/kg; for `CC[C@]12CCCN3CCc4c(n(c5ccccc45)[C@@](O)(C(=O)OC)C1)[C@@H]32` [Example 7.a, Vincamine 3,5-dihydroxybenzoate]: 850 mg/kg.
The molecule `CC[C@@]12C=C(C(=O)OC)n3c4c(c5ccccc53)CCN(CCC1)[C@H]42` [Example 22.b, Apovincamine caprate] gave an LD50 of 1900 mg/kg.

Still in this series, the particulars now being: i.p.; Gleason class in words, classes not defined.
On to Vincamine tannate [Example 24.a], for which the “Toxicity (Gleason)” value was “modest”.
Consider `CC[C@@]12C=C(C(=O)OC)n3c4c(c5ccccc53)CCN(CCC1)[C@H]42` [Example 2.b, Apovineamine 2,4-dihydroxy-benzoate], for which the “Toxicity (Gleason)” value is given as “modest”.
Turning to `CC[C@@]12C=C(C(=O)OC)n3c4c(c5ccccc53)CCN(CCC1)[C@H]42` [Example 26.b, Apovincamine indolyl-3-acetate], the “Toxicity (Gleason)” value was “modest”.
Regarding “Apovincamine-pectin (1:1 adduct) [Example 30.b]”, the “Toxicity (Gleason)” value is given as “modest”.
As to `CC[C@]12CCCN3CCc4c(n(c5ccccc45)[C@@](O)(C(=O)OC)C1)[C@@H]32` [Example 21.a], the “Toxicity (Gleason)” value is on record as “modest”.
As to `CC[C@]12CCCN3CCc4c(n(c5ccccc45)[C@@](O)(C(=O)OC)C1)[C@@H]32` [Example 7.a, Vincamine 3,5-dihydroxybenzoate], the “Toxicity (Gleason)” value was “modest”.
Consider `CC[C@@]12C=C(C(=O)OC)n3c4c(c5ccccc53)CCN(CCC1)[C@H]42` [Example 22.b, Apovincamine caprate], for which the “Toxicity (Gleason)” value is reported as “light”.

Test system in a further series: not listed separately
In words: Hematic levels at different times after oral administration (absorption). The series is classed as in vivo, Wistar rat. The conditions noted are these: 100 mg/kg expressed as vincamine/apovincamine, 5% carboxymethyl cellulose suspension. Summed up:
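Wistar rats dosed orally at 100 mg/kg (expressed as vincamine or apovincamine) as a suspension in 5% carboxymethyl cellulose. Blood levels measured chromatographically at 0, 30, 120, 240, 480 min, 10 h and 12 h to define absorption and time of maximum concentration.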
Vincamine tannate [Example 24.a] registered a Max. conc. time of 240 min.
“Apovincamine-pectin (1:1 adduct) [Example 30.b]” displayed a Max. conc. time of 60 min.

Still in this series, the particulars now being: 100 mg/kg expressed as vincamine/apovincamine, 5% carboxymethyl cellulose suspension, 100 mg/kg.
In the case of `CC[C@@]12C=C(C(=O)OC)n3c4c(c5ccccc53)CCN(CCC1)[C@H]42` [Example 2.b, Apovineamine 2,4-dihydroxy-benzoate], the Max. conc. time stood at 120 min.
Same read-out and setting: the same measure for `CC[C@@]12C=C(C(=O)OC)n3c4c(c5ccccc53)CCN(CCC1)[C@H]42` [Example 26.b, Apovincamine indolyl-3-acetate]: 120 min.
`CC[C@]12CCCN3CCc4c(n(c5ccccc45)[C@@](O)(C(=O)OC)C1)[C@@H]32` [Example 21.a] showed a Max. conc. time of 20 min.
`CC[C@]12CCCN3CCc4c(n(c5ccccc45)[C@@](O)(C(=O)OC)C1)[C@@H]32` [Example 7.a, Vincamine 3,5-dihydroxybenzoate] yielded a Max. conc. time of 240 min.
Molecule `CC[C@@]12C=C(C(=O)OC)n3c4c(c5ccccc53)CCN(CCC1)[C@H]42` [Example 22.b, Apovincamine caprate] yielded a Max. conc. time of 240 min.

A further series relates to vertebral arteria. Briefly: Cerebral vasodilating activity: hematic flow at the vertebral arteria after i.v. administration. The series is classed as in vivo. Conditions: i.v. (femoral vein), 5 mg/kg of vincamine/apovincamine, anesthetized dog, 4 animals per compound. Summed up:
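In anesthetized dogs, groups of 4 per compound, left vertebral artery blood flow recorded with periarterial electromagnetic flowmeters after i.v. dosing. Values are percent change in flow.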
Turning to Vincamine tannate [Example 24.a], the “% increase (percent variation of hematic flow, left vertebral arteria)” value is given as 26.2%.
Still for that read-out and setting: the same measure for “Apovincamine-pectin (1:1 adduct) [Example 30.b]”: 39.6%.

The series is the same for the next values; noted with them: i.v. (femoral vein), 5 mg/kg of vincamine/apovincamine, anesthetized dog, 4 animals per compound; 5 mg/kg.
Regarding `CC[C@@]12C=C(C(=O)OC)n3c4c(c5ccccc53)CCN(CCC1)[C@H]42` [Example 2.b, Apovineamine 2,4-dihydroxy-benzoate], the “% increase (percent variation of hematic flow, left vertebral arteria)” value was 29.0%.
In the case of `CC[C@@]12C=C(C(=O)OC)n3c4c(c5ccccc53)CCN(CCC1)[C@H]42` [Example 26.b, Apovincamine indolyl-3-acetate], the “% increase (percent variation of hematic flow, left vertebral arteria)” value was 28.7%.
On the same count and under the same terms, the same measure for `CC[C@]12CCCN3CCc4c(n(c5ccccc45)[C@@](O)(C(=O)OC)C1)[C@@H]32` [Example 21.a]: 30.0%.
In the case of `CC[C@]12CCCN3CCc4c(n(c5ccccc45)[C@@](O)(C(=O)OC)C1)[C@@H]32` [Example 7.a, Vincamine 3,5-dihydroxybenzoate], the “% increase (percent variation of hematic flow, left vertebral arteria)” value came to 26.3%.
On to `CC[C@@]12C=C(C(=O)OC)n3c4c(c5ccccc53)CCN(CCC1)[C@H]42` [Example 22.b, Apovincamine caprate], for which the “% increase (percent variation of hematic flow, left vertebral arteria)” value came out at 28.2%.

Test system in the next series: not listed separately
Briefly: Solubility. The series is classed as physicochemical. The conditions noted are these: alcohol (ethyl alcohol); qualitative.
Turning to Vincamine tannate [Example 24.a], the solubility in alcohol result was “soluble”.
Still for that read-out and setting: then `CC[C@@]12C=C(C(=O)OC)n3c4c(c5ccccc53)CCN(CCC1)[C@H]42` [Example 2.b, Apovineamine 2,4-dihydroxy-benzoate], with “soluble”; and `CC[C@@]12C=C(C(=O)OC)n3c4c(c5ccccc53)CCN(CCC1)[C@H]42` [Example 26.b, Apovincamine indolyl-3-acetate], with “poorly soluble”; and “Apovincamine-pectin (1:1 adduct) [Example 30.b]”, with “little soluble”.
Regarding `CC[C@]12CCCN3CCc4c(n(c5ccccc45)[C@@](O)(C(=O)OC)C1)[C@@H]32` [Example 7.a, Vincamine 3,5-dihydroxybenzoate], the solubility in alcohol entry was “insoluble”.
On to `CC[C@@]12C=C(C(=O)OC)n3c4c(c5ccccc53)CCN(CCC1)[C@H]42` [Example 22.b, Apovincamine caprate], for which the solubility in alcohol entry was “insoluble”.

The same series, now with this note: common organic solvents; qualitative.
Regarding `CC[C@@]12C=C(C(=O)OC)n3c4c(c5ccccc53)CCN(CCC1)[C@H]42` [Example 2.b, Apovineamine 2,4-dihydroxy-benzoate], the “solubility in the common (organic) solvents” value is “not”.
Turning to `CC[C@]12CCCN3CCc4c(n(c5ccccc45)[C@@](O)(C(=O)OC)C1)[C@@H]32` [Example 21.a], the “solubility in the common (organic) solvents” value is “insoluble”.

Still in this series, the particulars now being: water; qualitative.
Regarding `CC[C@@]12C=C(C(=O)OC)n3c4c(c5ccccc53)CCN(CCC1)[C@H]42` [Example 26.b, Apovincamine indolyl-3-acetate], the solubility in water entry is on record as “insoluble”.
With `CC[C@]12CCCN3CCc4c(n(c5ccccc45)[C@@](O)(C(=O)OC)C1)[C@@H]32` [Example 21.a], the solubility in water entry is “insoluble”.
Regarding `CC[C@]12CCCN3CCc4c(n(c5ccccc45)[C@@](O)(C(=O)OC)C1)[C@@H]32` [Example 7.a, Vincamine 3,5-dihydroxybenzoate], the solubility in water result is reported as “insoluble”.
In the case of `CC[C@@]12C=C(C(=O)OC)n3c4c(c5ccccc53)CCN(CCC1)[C@H]42` [Example 22.b, Apovincamine caprate], the solubility in water result is “insoluble”.
